“Also recorded” adds a separate entry of the source. Like-named read-outs stand apart in the source and are kept apart here.
Columns and labels:
[1] = tested on: co-culture of iPSC-derived excitatory and inhibitory neurons, and primary human astrocytes; design: method as in Bartmann et al. [2023]; settings: ref Bartmann et al. [2023], cited from earlier work
[2] = tested on: human iPSC-derived 3D BrainSpheres; assay: BrainSphere MEA assay (HD-MEA, 13-day exposure, concentration-response); assay type: cell-based; settings: for Difference of minimum potency between BrainSphere MEA assay and rNFA: 5th percentile of AC50 values by chemical, above 0.5 = more potent in the rNFA; for hitc Mean.Spheroid.Burst.Duration / hitc Mean.Spheroid.Burst.ISI / hitc Mean.Spheroid.Burst.Peak.Firing.Rate / hitc Mean.Spheroid.Firing.Rate / hitc Mean.Spheroid.IBI / hitc Mean.Spheroid.Nonburst.ISI / hitc Mean.Spheroid.Spikes.per.Burst / hitc Mean.Spheroid.Spikes.per.Burst.per.Electrode / hitc Spheroid.Burst.Frequency / hitc Spheroid.Spike.Amplitude.90th.Percentile: AUC over 13-day exposure, tcplfit2; for EC (benchmark response 1.349 SD): 312 h; for AC50: concentration at 50% maximal activity, Supplement 3 prints it also for curves with hit call 0; for Percent active: metrics active out of the total number of metrics screened; for ACC Mean.Spheroid.Burst.Duration / ACC Mean.Spheroid.Burst.ISI / ACC Mean.Spheroid.Burst.Peak.Firing.Rate / ACC Mean.Spheroid.Firing.Rate / ACC Mean.Spheroid.IBI / ACC Mean.Spheroid.Nonburst.ISI / ACC Mean.Spheroid.Spikes.per.Burst / ACC Mean.Spheroid.Spikes.per.Burst.per.Electrode / ACC Spheroid.Burst.Frequency / ACC Spheroid.Spike.Amplitude.90th.Percentile: tcplfit2 output ACC, activity cutoff in Supplemental Table 1; for Hits: total number of active endpoints out of 10 MEA activity metrics, 13-day exposure; for hitc Mean.Spheroid.Burst.Duration: key: 1 (active); 0 (inactive); for hitc Mean.Spheroid.Burst.ISI: key: 1 (active); 0 (inactive); for hitc Mean.Spheroid.Burst.Peak.Firing.Rate: key: 1 (active); 0 (inactive); for hitc Mean.Spheroid.Firing.Rate: key: 1 (active); 0 (inactive); for hitc Mean.Spheroid.IBI: key: 1 (active); 0 (inactive); for hitc Mean.Spheroid.Nonburst.ISI: key: 1 (active); 0 (inactive); for hitc Mean.Spheroid.Spikes.per.Burst.per.Electrode: key: 1 (active); 0 (inactive); for hitc Mean.Spheroid.Spikes.per.Burst: key: 1 (active); 0 (inactive); for hitc Spheroid.Burst.Frequency: key: 1 (active); 0 (inactive); for hitc Spheroid.Spike.Amplitude.90th.Percentile: key: 1 (active); 0 (inactive)
Outline: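 7-week-differentiated BrainSpheres were plated on laminin/poly-D-lysine-coated HD-MEA chips and given 2 days to attach. Neural activity was recorded from the same regions of interest through a 13-day exposure, from day 0 onward. Ten network and general activity endpoints were derived per BrainSphere, with ≥3 biological replicates.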

[3] = 5th percentile across active AC50 values per chemical, read-out: Minimum potency
[4] = Homo sapiens, tcplfit2 BMD at benchmark response (1.349*SD of baseline controls), read-out: BMD Mean.Spheroid.Burst.ISI
[5] = Homo sapiens, tcplfit2 BMD at benchmark response (1.349*SD of baseline controls), read-out: BMD Mean.Spheroid.Nonburst.ISI
[6] = Homo sapiens, read-out: ac50 Mean.Spheroid.Burst.Duration
[7] = Homo sapiens, read-out: ac50 Mean.Spheroid.Burst.ISI
[8] = Homo sapiens, read-out: ac50 Spheroid.Burst.Frequency
[9] = read-out: ac50 Mean.Spheroid.Burst.Duration
[10] = read-out: ac50 Mean.Spheroid.Burst.ISI
[11] = read-out: ac50 Mean.Spheroid.Burst.Peak.Firing.Rate
[12] = read-out: ac50 Mean.Spheroid.Firing.Rate
[13] = read-out: ac50 Mean.Spheroid.IBI
[14] = read-out: ac50 Mean.Spheroid.Nonburst.ISI
[15] = read-out: ac50 Mean.Spheroid.Spikes.per.Burst
[16] = read-out: ac50 Mean.Spheroid.Spikes.per.Burst.per.Electrode
[17] = read-out: ac50 Spheroid.Burst.Frequency
[18] = read-out: ac50 Spheroid.Spike.Amplitude.90th.Percentile
[19] = mean across active AC50 values per chemical, read-out: Mean potency
[20] = tcplfit2 BMD at benchmark response (1.349*SD of baseline controls)
[21] = top of winning model, response normalized as percent of vehicle control, negative = decrease

In the case of `CC1(C)[C@H](C(=O)O[C@H](C#N)c2cccc(Oc3ccccc3)c2)[C@@H]1C=C(Br)Br` [Deltamethrin], the EC50 ([1]; read-out: Mean potency in the hNNF) is given as 3.53 µM, the EC50 ([1]; read-out: Minimum potency in the hNNF) is given as 2.74 µM and the EC50 [2, 3] is given as 1.6 µM. For the same compound, the “Difference of minimum potency between BrainSphere MEA assay and rNFA” value [2] was at most 0.5 log10 µM, the “hitc Mean.Spheroid.Burst.Duration” value [2] was 1 and the “hitc Mean.Spheroid.Burst.ISI” value [2] was 1. The “hitc Mean.Spheroid.Burst.Peak.Firing.Rate” value [2] was 1, the “hitc Mean.Spheroid.Firing.Rate” value [2] was 1 and the “hitc Mean.Spheroid.IBI” value [2] was 1. The “hitc Mean.Spheroid.Nonburst.ISI” value [2] was 1, the “hitc Mean.Spheroid.Spikes.per.Burst” value [2] was 1 and the “hitc Mean.Spheroid.Spikes.per.Burst.per.Electrode” value [2] was 1. The “hitc Spheroid.Burst.Frequency” value [2] was 1, the “hitc Spheroid.Spike.Amplitude.90th.Percentile” value [2] was 1 and the EC50 ([2]; Homo sapiens, 5th percentile across active AC50 values per chemical, read-out: Minimum potency) was 1 µM. It also gave an EC (benchmark response 1.349 SD) [2, 4] of 7.6 µM, an EC (benchmark response 1.349 SD) [2, 5] of 9.4 µM and an AC50 [2, 6] of 3.3 µM. It also gave an AC50 [2, 7] of 8.4 µM, an AC50 ([2]; Homo sapiens, read-out: ac50 Mean.Spheroid.Burst.Peak.Firing.Rate) of 3.8 µM and an AC50 ([2]; Homo sapiens, read-out: ac50 Mean.Spheroid.Firing.Rate) of 3.5 µM. For the same compound, the AC50 ([2]; Homo sapiens, read-out: ac50 Mean.Spheroid.IBI) was 10 µM, the AC50 ([2]; Homo sapiens, read-out: ac50 Mean.Spheroid.Nonburst.ISI) was 9.8 µM and the AC50 ([2]; Homo sapiens, read-out: ac50 Mean.Spheroid.Spikes.per.Burst) was 1.9 µM. It also gave an AC50 ([2]; Homo sapiens, read-out: ac50 Mean.Spheroid.Spikes.per.Burst.per.Electrode) of 1.4 µM, an AC50 [2, 8] of 5.9 µM and an AC50 ([2]; Homo sapiens, read-out: ac50 Spheroid.Spike.Amplitude.90th.Percentile) of 4 µM. The EC50 ([2]; Homo sapiens, mean across active AC50 values per chemical, read-out: Mean potency) was 4.45 µM, the AC50 [2, 9] was 3.31 µM and the AC50 [2, 10] was 8.39 µM. For the same compound, the AC50 [2, 11] was 3.77 µM, the AC50 [2, 12] was 3.49 µM and the AC50 [2, 13] was 10.4 µM. For the same compound, the AC50 [2, 14] was 9.81 µM, the AC50 [2, 15] was 1.85 µM and the AC50 [2, 16] was 1.4 µM. The AC50 [2, 17] was 5.88 µM, the AC50 [2, 18] was 3.97 µM and the EC50 [2, 19] was 5.23 µM. The Percent active [2] was 100%, the “BMD Mean.Spheroid.Burst.Duration” value [2, 20] was 1.9 µM and the “BMD Mean.Spheroid.Burst.Peak.Firing.Rate” value [2, 20] was 2.4 µM. The “BMD Mean.Spheroid.Firing.Rate” value [2, 20] was 3.6 µM, the “BMD Mean.Spheroid.IBI” value [2, 20] was 9.6 µM and the “BMD Mean.Spheroid.Spikes.per.Burst” value [2, 20] was 1.2 µM. The “BMD Mean.Spheroid.Spikes.per.Burst.per.Electrode” value [2, 20] was 0.69 µM, the “BMD Spheroid.Burst.Frequency” value [2, 20] was 6 µM and the “BMD Spheroid.Spike.Amplitude.90th.Percentile” value [2, 20] was 1.6 µM. The “ACC Mean.Spheroid.Burst.Duration” value [2] was 1.7 µM, the “ACC Mean.Spheroid.Burst.ISI” value [2] was 7 µM and the “ACC Mean.Spheroid.Burst.Peak.Firing.Rate” value [2] was 2.2 µM. The “ACC Mean.Spheroid.Firing.Rate” value [2] was 5.2 µM, the “ACC Mean.Spheroid.IBI” value [2] was 10 µM and the “ACC Mean.Spheroid.Nonburst.ISI” value [2] was 9.6 µM. For the same compound, the “ACC Mean.Spheroid.Spikes.per.Burst” value [2] was 2 µM, the “ACC Mean.Spheroid.Spikes.per.Burst.per.Electrode” value [2] was 0.92 µM and the “ACC Spheroid.Burst.Frequency” value [2] was 5.1 µM. The “ACC Spheroid.Spike.Amplitude.90th.Percentile” value [2] was 2.2 µM and the Hits [2] was 10.
For `[CH3][Hg][Cl]` [Methylmercury], the EC50 [2, 3] was 2.41 µM, the “Difference of minimum potency between BrainSphere MEA assay and rNFA” value [2] was “more than 0.5 log10 µM” and the “hitc Mean.Spheroid.Burst.Duration” value [2] was 1. For the same compound, the “hitc Mean.Spheroid.Burst.ISI” value [2] was 1, the “hitc Mean.Spheroid.Burst.Peak.Firing.Rate” value [2] was 1 and the “hitc Mean.Spheroid.Firing.Rate” value [2] was 1. The “hitc Mean.Spheroid.IBI” value [2] was 1, the “hitc Mean.Spheroid.Nonburst.ISI” value [2] was 1 and the “hitc Mean.Spheroid.Spikes.per.Burst” value [2] was 1. For the same compound, the “hitc Mean.Spheroid.Spikes.per.Burst.per.Electrode” value [2] was 1, the “hitc Spheroid.Burst.Frequency” value [2] was 1 and the “hitc Spheroid.Spike.Amplitude.90th.Percentile” value [2] was 1. The “Bioactivity trend over time for MFR, mean spike amplitude and burst frequency (qualitative)” value ([2]; DOE 0-13, highest tested concentrations, Fig. 3) was “appeared to decrease activity”, the AC50 ([2]; listed as Methylmercuric(II) chloride, read-out: ac50 Mean.Spheroid.Burst.Duration) was 5.9 µM and the AC50 ([2]; listed as Methylmercuric(II) chloride, read-out: ac50 Mean.Spheroid.Burst.ISI) was 3.3 µM. It also gave an AC50 ([2]; listed as Methylmercuric(II) chloride, read-out: ac50 Mean.Spheroid.Burst.Peak.Firing.Rate) of 3 µM, an AC50 ([2]; listed as Methylmercuric(II) chloride, read-out: ac50 Mean.Spheroid.Firing.Rate) of 7.7 µM and an AC50 ([2]; listed as Methylmercuric(II) chloride, read-out: ac50 Mean.Spheroid.IBI) of 6.3 µM. For the same compound, the AC50 ([2]; listed as Methylmercuric(II) chloride, read-out: ac50 Mean.Spheroid.Nonburst.ISI) was 2.6 µM, the AC50 ([2]; listed as Methylmercuric(II) chloride, read-out: ac50 Mean.Spheroid.Spikes.per.Burst) was 7.9 µM and the AC50 ([2]; listed as Methylmercuric(II) chloride, read-out: ac50 Mean.Spheroid.Spikes.per.Burst.per.Electrode) was 6.5 µM. The AC50 ([2]; listed as Methylmercuric(II) chloride, read-out: ac50 Spheroid.Burst.Frequency) was 2.3 µM, the AC50 ([2]; listed as Methylmercuric(II) chloride, read-out: ac50 Spheroid.Spike.Amplitude.90th.Percentile) was 16 µM and the AC50 [2, 9] was 5.91 µM. It also gave an AC50 [2, 10] of 3.34 µM, an AC50 [2, 11] of 3.02 µM and an AC50 [2, 12] of 7.68 µM. It also gave an AC50 [2, 13] of 6.32 µM, an AC50 [2, 14] of 2.56 µM and an AC50 [2, 15] of 7.9 µM. For the same compound, the AC50 [2, 16] was 6.46 µM, the AC50 [2, 17] was 2.29 µM and the AC50 [2, 18] was 16 µM. The EC50 [2, 19] was 6.15 µM, the Percent active [2] was 100% and the “BMD Mean.Spheroid.Burst.Duration” value [2, 20] was 5.5 µM. The “BMD Mean.Spheroid.Burst.ISI” value [2, 20] was 2.3 µM, the “BMD Mean.Spheroid.Burst.Peak.Firing.Rate” value [2, 20] was 2.6 µM and the “BMD Mean.Spheroid.Firing.Rate” value [2, 20] was 7.8 µM. The “BMD Mean.Spheroid.IBI” value [2, 20] was 5.9 µM, the “BMD Mean.Spheroid.Nonburst.ISI” value [2, 20] was 1.8 µM and the “BMD Mean.Spheroid.Spikes.per.Burst” value [2, 20] was 7.7 µM. The “BMD Mean.Spheroid.Spikes.per.Burst.per.Electrode” value [2, 20] was 6.2 µM, the “BMD Spheroid.Burst.Frequency” value [2, 20] was 2.4 µM and the “BMD Spheroid.Spike.Amplitude.90th.Percentile” value [2, 20] was 5.1 µM. The “ACC Mean.Spheroid.Burst.Duration” value [2] was 5.4 µM, the “ACC Mean.Spheroid.Burst.ISI” value [2] was 1.7 µM and the “ACC Mean.Spheroid.Burst.Peak.Firing.Rate” value [2] was 2.5 µM. The “ACC Mean.Spheroid.Firing.Rate” value [2] was 8.2 µM, the “ACC Mean.Spheroid.IBI” value [2] was 6.3 µM and the “ACC Mean.Spheroid.Nonburst.ISI” value [2] was 2.2 µM. For the same compound, the “ACC Mean.Spheroid.Spikes.per.Burst” value [2] was 8 µM, the “ACC Mean.Spheroid.Spikes.per.Burst.per.Electrode” value [2] was 6.4 µM and the “ACC Spheroid.Burst.Frequency” value [2] was 2 µM. The “ACC Spheroid.Spike.Amplitude.90th.Percentile” value [2] was 10 µM, the “Top Mean.Spheroid.Burst.Duration” value [2, 21] was −97 and the “Top Mean.Spheroid.Burst.ISI” value [2, 21] was −99. For the same compound, the “Top Mean.Spheroid.Burst.Peak.Firing.Rate” value [2, 21] was −95, the “Top Mean.Spheroid.Firing.Rate” value [2, 21] was −88 and the “Top Mean.Spheroid.IBI” value [2, 21] was −94. For the same compound, the “Top Mean.Spheroid.Nonburst.ISI” value [2, 21] was −100, the “Top Mean.Spheroid.Spikes.per.Burst” value [2, 21] was −100 and the “Top Mean.Spheroid.Spikes.per.Burst.per.Electrode” value [2, 21] was −95. The “Top Spheroid.Burst.Frequency” value [2, 21] was −100, the “Top Spheroid.Spike.Amplitude.90th.Percentile” value [2, 21] was −21 and the Hits [2] was 10.
With `CCCC(CCC)C(=O)O` [Sodium valproate] the “Bioactivity across the 10 MEA endpoints of the BrainSphere MEA assay (in words)” value [2] was “inactive across all metrics; also recorded: inactive in the BrainSphere MEA”, the EC (benchmark response 1.349 SD) [2, 4] was 85 µM and the EC (benchmark response 1.349 SD) [2, 5] was 213 µM. It also gave an AC50 [2, 6] of 45 µM, an AC50 [2, 7] of 85 µM and an AC50 [2, 8] of 84 µM.
